For this experiment, the system named is hippocampal neurons. Nature of the experiment: Neurite outgrowth assay in cultured E18 rat hippocampal neurons (48 h, βIII-tubulin staining, Cellomics ArrayScan). Conditions: Hippocampal neuron; for activity at 0.015625 µg/mL: 15.625 ng/mL compound; for activity at 0.015625 µg/mL / activity at 0.03125 µg/mL / activity at 0.0625 µg/mL / activity at 0.125 µg/mL / activity at 0.25 µg/mL / activity at 0.5 µg/mL: 48 hours, read-out: neurite growth length (% NTL); for activity at 0.03125 µg/mL: 31.25 ng/mL compound; for activity at 0.0625 µg/mL: 62.5 ng/mL compound; for activity at 0.125 µg/mL: 125 ng/mL compound; for activity at 0.25 µg/mL: 250 ng/mL compound; for activity at 0.5 µg/mL: 500 ng/mL compound. It counts as cell-based. The procedure: Pre-coating culture plates: On the day before the experiment, 96-well plates were pre-coated by plating 50 μL of poly-D-lysine solution (PDL, 0.5 mg/mL) in each well. The next morning, the plates were washed four or five times with HBSS or PBS (150 μL/rinse), then left in buffer until cell plating
Preparing the cells: A timed pregnant rat carrying E18 embryos was euthanized using an IACUC approved method. In a laminar flow hood, the embryos were removed and placed in a petri dish containing Hank's Balanced Salt Solution (HBSS) with 20 mM HEPES, pH 7.3. Pup brains were dissected (see Meberg et al., Methods cell Biol 71:111-127 (2003)) and hippocampi were collected in 15 mL a conical tube containing Hibernate E with SM1 (2% v/v).
Dissociation media was prepared by combining 4.5 mL of Hibernate E (without SM1) with 0.5 mL of trypsin and 100 μl of DNAse solution. The medium over the hippocampi was carefully removed and replaced with dissociation solution, then incubated at 37° C. for 15-20 minutes, occasionally swirling the tube.
Using flame polished cotton plugged Pasteur pipettes, the dissociation media was removed, and then 5 mL of Hibernate E containing SM1 were added. The tube was swirled to thoroughly wash the tissue. The tissue was allowed to settle to the bottom of the tube, and the rinse solution was carefully removed. This step was repeated 5 times to dilute out trypsin and DNAse and remove any debris from lysed cells.
The final rinse media was removed from the tube and 1 pipette-full (1-2 mL) of Hibernate E with SM1 was added. Using the flame-polished Pasteur pipette (pre-wetted with rinse media), the tube was triturated until all cells had dissociated and no visible chunks of tissue remained. Fewer than ten triturations were typically performed. The volume was adjusted to 8-12 mL using Hibernate E containing SM1, the well was mixed and cell concentration was determined.
Plating: The cells were diluted in culture media (NbActiv4 Cell-culture media) to a final concentration of 10,000 cells/mL. The HBSS was aspirated from PDL coated plates, and 150 μL of cell solution was loaded in the middle 48 wells at 1500 cells per well. Water was loaded in the outer wells to decrease evaporation from edge wells. Cells were allowed to adhere for 2 hours in tissue culture incubator prior to treatment.
Treatment: Compounds were diluted to various concentrations to provide 6 dose response concentrations of 500 ng/mL, 250 ng/mL, 125 ng/mL, 62.5 ng/mL, 31.25 ng/mL, and 15.625 ng/mL. The plates were cultured for 48 hours, exposed to the compound at the various dose response concentrations.
Fixing the cultures: The culture medium was removed from the plates and immediately replaced with 100-200 μL of warm (37° C.) 4% paraformaldehyde (“PFA”) solution in phosphate-buffered saline (“PBS”). The cells were fixed for 15-20 minutes at room temperature, and then rinsed with PBS (200 μl/well×3).
Staining and imaging: The PBS was removed and replaced with 100 μL of blocking/permeabilization buffer (PBS, 0.2% fish gelatin, 0.03% Triton X-100, 0.02% NaN3), then incubated overnight at 4° C. To this was added 100 μL of primary antibody solution (mouse anti-Beta III tubulin in blocking buffer) and incubate overnight at 4° C. The wells were rinsed with PBS (200 μl×3), which was then removed and replaced with 100 μL of secondary antibody solution (Goat anti-mouse Alexa 488, 10 μg/ml Hoechst 33342, 0.2% fish gelatin, 0.02% azide, in PBS). The plate was shaken gently on a rotating shaker for 2 hours, then rinsed with PBS (200 μl×5).
The plate was imaged using a Cellomics ArrayScan VTI in 2 different channels for nuclear staining (Hoechst) and cell body/neurite staining (βIII-tubulin). Typically, nine fields per well were imaged with a 5× objective and automatically traced by the Neuronal Profiling Bioapplication. To get reproducible results, at least 200-300 valid neurons were measured per condition. […]

Bounds are passed on as bounds.

With `CC(C)CCCN1C(=S)N(CCCC[C@H]2CNC(CCCc3ccccc3)=N2)C[C@H]1c1ccccc1` [Compound A21, (R)-3-(4-methylpentyl)-4-phenyl-1-(4-((S)-2-(3-phenylpropyl)-4,5-dihydro-1H-imidazol-4-yl)butyl)imidazolidine-2-thione], the activity at 0.015625 µg/mL is 114%, the activity at 0.03125 µg/mL came out at 170%, the activity at 0.0625 µg/mL came out at 172% and the activity at 0.125 µg/mL came to 259%. For the same compound, the activity at 0.25 µg/mL is 254% and the activity at 0.5 µg/mL was determined as 225%.
With `CC(C)CCCN1C(=S)N(CCCC[C@H]2CNC(C3CCCC3)=N2)C[C@H]1c1ccccc1` [Compound A20, (R)-1-(4-((S)-2-cyclopentyl-4,5-dihydro-1H-imidazol-4-yl)butyl)-3-(4-methylpentyl)-4-phenylimidazolidine-2-thione], the activity at 0.015625 µg/mL was determined as 174%, the activity at 0.03125 µg/mL came to 234%, the activity at 0.0625 µg/mL turned out to be 280% and the activity at 0.125 µg/mL is 249%. Also, the activity at 0.25 µg/mL worked out at 278% and the activity at 0.5 µg/mL was determined as 273%.
On to `CC1CCC(CN2C(=S)N(CCCC[C@H]3CNC(C4CCCC4)=N3)C[C@H]2c2ccccc2)CC1` (stereo partly drawn) [Compound A26, (R)-1-(4-((S)-2-cyclopentyl-4,5-dihydro-1H-imidazol-4-yl)butyl)-3-((4-methylcyclohexyl)methyl)-4-phenylimidazolidine-2-thione], for which the activity at 0.015625 µg/mL turned out to be 251%, the activity at 0.03125 µg/mL amounted to 272%, the activity at 0.0625 µg/mL was found to be 306% and the activity at 0.125 µg/mL is 286%. Moreover, the activity at 0.25 µg/mL is 271% and the activity at 0.5 µg/mL was determined as 230%. Further, the EC200 (48 h, 200% effective dose, estimated using linear interpolation, read-out: ED200%) is 0.002 µM. For the setting “48 h, 300% effective dose, estimated using linear interpolation, read-out: ED300%”, the EC300 was more than 0.52 µM.

The record behind these values is patent US11981660B2, “Neurite outgrowth promoters and uses thereof” (UNIVERSITY OF MIAMI, priority 2018, dated 2024).
